Values quoted from earlier work in patent publication US9511035B2, “Java ginger extract and manufacturing method” (Hosoda SHC Inc., priority 2013, dated 2016).

Key:
[1] = system: rat adrenal medullary pheochromocytoma (PC12 cell); conditions: stated in words; for NGF-like action: no data in this patent, earlier finding of the inventors (JP 2010-90053 A)
[2] = biological target: platelet-activating factor (Homo sapiens, UniProt P25105); conditions: disclosed in JP 2003-313116 A
[3] = system: tyrosinase; conditions: disclosed in JP 2003-313116 A
[4] = system: chemokine expression; conditions: disclosed in JP 2003-306438 A

platelet-activating factor, sequence (P25105 whole entry): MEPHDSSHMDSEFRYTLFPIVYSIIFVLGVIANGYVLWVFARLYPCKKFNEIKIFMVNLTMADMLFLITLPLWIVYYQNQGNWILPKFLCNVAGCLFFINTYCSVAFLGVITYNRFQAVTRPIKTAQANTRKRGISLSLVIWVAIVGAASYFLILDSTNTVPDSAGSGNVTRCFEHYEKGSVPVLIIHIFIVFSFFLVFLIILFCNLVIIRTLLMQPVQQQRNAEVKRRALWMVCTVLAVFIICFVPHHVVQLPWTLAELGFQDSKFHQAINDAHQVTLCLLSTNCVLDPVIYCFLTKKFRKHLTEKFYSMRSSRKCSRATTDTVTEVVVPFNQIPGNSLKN

| platelet-activating factor antagonism [2] | tyrosinase activity-inhibiting action [3] | SMILES | NGF-like action [1] | process extension activity ([1]; PC12 cell) | differentiation of PC12 cell ([1]; as is the case with the NGF) | NGF-like action (neuronal process extension action) relative to NGF ([1]; comparison with NGF) | chemokine expression-inhibiting action [4] |
| --- | --- | --- | --- | --- | --- | --- | --- |
|  |  | C=C/C=C/c1ccc(OC)c(OC)c1 [monomer, phenyl butenoid monomer, reference compound] | no NGF-like action |  |  |  |  |
| platelet-activating factor antagonism | tyrosinase activity-inhibiting action | COc1ccc(/C=C/C2CCC=CC2c2ccc(OC)c(OC)c2)cc1OC (centres unmarked) [phenyl butenoid dimer] | showed an NGF-like action | shows a process extension activity | induces differentiation | more effective than NGF | chemokine expression-inhibiting action |
